The values below come from US10525041B2, “Fluoroalkyl-substituted aryltriazole derivatives and uses thereof” (BAYER PHARMA AKTIENGESELLSCHAFT, priority 2016, dated 2020).

The target in one assay is T1, human V1a receptor (Homo sapiens, UniProt P37288).
T1 construct: expressed in transfected cells; host or cells: CHO K1 (ATCC), also stably transfected with a modified aequorin
Briefly: Cellular in vitro assay for vasopressin receptor activity, V1a cell line (aequorin luminescence). Format: cell-based. Conditions: for IC50: CHO cell line transfected with human V1a receptor, agonist [Arg8]-vasopressin at EC50 concentration, read-out: IC50hV1a; for ratio IC50 hV2/hV1a: ratio of the IC50 on human V2 to the IC50 on human V1a. The method in brief: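 CHO K1 cells stably expressing human V1a receptor with aequorin photoprotein, loaded overnight with coelenterazine. Compounds preincubated 10 min at various concentrations, then challenged with [Arg^8]-vasopressin at EC50 concentration. Calcium-driven luminescence read immediately; IC50 values derived.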

Another assay deals with T2, human V2 receptor (Homo sapiens, UniProt P30518).
T2 construct: expressed in transfected cells; host or cells: CHO K1 (ATCC) line expressing firefly luciferase under a CRE-responsive promoter
Briefly: Cellular in vitro assay for vasopressin receptor activity, V2 cell line (CRE-luciferase). The assay is classed as cell-based. The settings on record: CHO cell line transfected with human V2 receptor; agonist [Arg8]-vasopressin at EC50 concentration, 3 hours; read-out: IC50hV2.

T1 sequence (P37288 whole entry): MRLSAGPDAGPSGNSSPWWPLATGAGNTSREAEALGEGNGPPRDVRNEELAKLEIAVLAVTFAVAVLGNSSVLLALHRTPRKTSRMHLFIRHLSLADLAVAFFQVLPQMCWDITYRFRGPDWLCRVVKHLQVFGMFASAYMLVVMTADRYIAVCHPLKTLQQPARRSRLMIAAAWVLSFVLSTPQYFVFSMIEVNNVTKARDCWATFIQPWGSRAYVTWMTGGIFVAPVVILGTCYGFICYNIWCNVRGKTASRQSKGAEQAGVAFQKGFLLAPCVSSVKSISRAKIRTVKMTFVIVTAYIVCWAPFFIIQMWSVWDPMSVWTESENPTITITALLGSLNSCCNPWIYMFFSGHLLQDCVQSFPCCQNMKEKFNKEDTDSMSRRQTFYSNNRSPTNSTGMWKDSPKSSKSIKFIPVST
T2 sequence (P30518 whole entry): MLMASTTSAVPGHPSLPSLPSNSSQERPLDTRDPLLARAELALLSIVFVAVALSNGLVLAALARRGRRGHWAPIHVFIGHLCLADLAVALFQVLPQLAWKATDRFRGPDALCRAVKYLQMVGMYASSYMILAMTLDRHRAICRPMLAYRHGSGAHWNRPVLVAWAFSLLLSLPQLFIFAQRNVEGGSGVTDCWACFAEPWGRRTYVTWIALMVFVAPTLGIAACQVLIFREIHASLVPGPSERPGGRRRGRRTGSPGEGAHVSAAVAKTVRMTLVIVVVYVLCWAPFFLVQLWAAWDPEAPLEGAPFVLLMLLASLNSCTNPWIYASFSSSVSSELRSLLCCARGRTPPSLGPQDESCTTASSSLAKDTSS

With `CC(F)(F)c1nc(Cn2nc(-c3ccc(Cl)cc3)n(C[C@H](O)C(F)(F)F)c2=O)nn1-c1cccc(F)c1` [Example 56, 5-(4-Chlorophenyl)-2-{[5-(1,1-difluoroethyl)-1-(3-fluorophenyl)-1H-1,2,4-triazol-3-yl]methyl}-4-[(2S)-3,3,3-trifluoro-2-hydroxypropyl]-2,4-dihydro-3H-1,2,4-triazol-3-one], on human V1a receptor, the IC50 came to 15.5 nM and the “ratio IC50 hV2/hV1a” value amounted to 0.3. For the same molecule, the IC50 on human V2 receptor stood at 5.25 nM.
As to `CC(F)(F)c1nc(Cn2nc(-c3ccc(Cl)cc3)n(C[C@H](O)C(F)(F)F)c2=O)nn1-c1cnccc1C(F)(F)F` [Example 57, 5-(4-Chlorophenyl)-2-({5-(1,1-difluoroethyl)-1-[4-(trifluoromethyl)pyridin-3-yl]-1H-1,2,4-triazol-3-yl}methyl)-4-[(2S)-3,3,3-trifluoro-2-hydroxypropyl]-2,4-dihydro-3H-1,2,4-triazol-3-one], on human V1a receptor, the IC50 was found to be 2 nM and the “ratio IC50 hV2/hV1a” value is listed as 12.3. Besides, the IC50 on human V2 receptor is 24.5 nM.
For `CC(F)(F)c1nc(Cn2nc(-c3ccc(Cl)cc3)n(C[C@H](O)C(F)(F)F)c2=O)nn1-c1ncccc1Cl` [Example 58, 5-(4-Chlorophenyl)-2-{[1-(3-chloropyridin-2-yl)-5-(1,1-difluoroethyl)-1H-1,2,4-triazol-3-yl]methyl}-4-[(2S)-3,3,3-trifluoro-2-hydroxypropyl]-2,4-dihydro-3H-1,2,4-triazol-3-one], in that order: 1 nM, 3.4 and 3.4 nM.
Regarding `CC(F)(F)c1nc(Cn2nc(-c3ccc(Cl)cc3)n(C[C@H](O)C(F)(F)F)c2=O)nn1-c1ncccc1C(F)(F)F` [Example 59, 5-(4-Chlorophenyl)-2-({5-(1,1-difluoroethyl)-1-[3-(trifluoromethyl)pyridin-2-yl]-1H-1,2,4-triazol-3-yl}methyl)-4-[(2S)-3,3,3-trifluoro-2-hydroxypropyl]-2,4-dihydro-3H-1,2,4-triazol-3-one], on human V1a receptor, the IC50 is 4.7 nM and the “ratio IC50 hV2/hV1a” value was 5.7. For the same molecule, the IC50 at human V2 receptor was found to be 26.7 nM.
Turning to `CC(F)(F)c1nc(Cn2nc(-c3ccc(Cl)cc3)n(C[C@H](O)C(F)(F)F)c2=O)nn1-c1ccccc1C(F)(F)F` [Example 60, 5-(4-Chlorophenyl)-2-({5-(1,1-difluoroethyl)-1-[2-(trifluoromethyl)phenyl]-1H-1,2,4-triazol-3-yl}methyl)-4-[(2S)-3,3,3-trifluoro-2-hydroxypropyl]-2,4-dihydro-3H-1,2,4-triazol-3-one], the IC50 turned out to be 1.73 nM at human V1a receptor and 11.6 nM at human V2 receptor. Also, the “ratio IC50 hV2/hV1a” value at human V1a receptor is given as 6.7.
Consider `CC(F)(F)c1nc(Cn2nc(-c3ccc(Cl)cc3)n(C[C@H](O)C(F)(F)F)c2=O)nn1-c1ccccc1OC(F)(F)F` [Example 61, 5-(4-Chlorophenyl)-2-({5-(1,1-difluoroethyl)-1-[2-(trifluoromethoxy)phenyl]-1H-1,2,4-triazol-3-yl}methyl)-4-[(2S)-3,3,3-trifluoro-2-hydroxypropyl]-2,4-dihydro-3H-1,2,4-triazol-3-one], for which, on human V1a receptor, the IC50 was 4.15 nM and the “ratio IC50 hV2/hV1a” value was 10.7. Further, the IC50 at human V2 receptor was 44.5 nM.
For `CCc1ccccc1-n1nc(Cn2nc(-c3ccc(Cl)cc3)n(C[C@H](O)C(F)(F)F)c2=O)nc1C(C)(F)F` [Example 62, 5-(4-Chlorophenyl)-2-{[5-(1,1-difluoroethyl)-1-(2-ethylphenyl)-1H-1,2,4-triazol-3-yl]methyl}-4-[(2S)-3,3,3-trifluoro-2-hydroxypropyl]-2,4-dihydro-3H-1,2,4-triazol-3-one] the same measures were 2.2 nM, 1.0 and 2.25 nM.
For `CC(F)(F)c1nc(Cn2nc(-c3ccc(Cl)cc3)n(C[C@H](O)C(F)(F)F)c2=O)nn1-c1ccccc1OC(F)F` [Example 63, 5-(4-Chlorophenyl)-2-({5-(1,1-difluoroethyl)-1-[2-(difluoromethoxy)phenyl]-1H-1,2,4-triazol-3-yl}methyl)-4-[(2S)-3,3,3-trifluoro-2-hydroxypropyl]-2,4-dihydro-3H-1,2,4-triazol-3-one] the same measures were 2.1 nM, 3.3 and 6.95 nM.
For `Cc1ccccc1-n1nc(Cn2nc(-c3ccc(Cl)cc3)n(C[C@H](O)C(F)(F)F)c2=O)nc1C(C)(F)F` [Example 64, 5-(4-Chlorophenyl)-2-{[5-(1,1-difluoroethyl)-1-(2-methylphenyl)-1H-1,2,4-triazol-3-yl]methyl}-4-[(2S)-3,3,3-trifluoro-2-hydroxypropyl]-2,4-dihydro-3H-1,2,4-triazol-3-one], in that order: 1.06 nM, 1.6 and 1.7 nM.
Turning to `CC(F)(F)c1nc(Cn2nc(-c3ccc(Cl)cc3)n(C[C@H](O)C(F)(F)F)c2=O)nn1-c1ccccc1[N+](=O)[O-]` [Example 65, 5-(4-Chlorophenyl)-2-{[5-(1,1-difluoroethyl)-1-(2-nitrophenyl)-1H-1,2,4-triazol-3-yl]methyl}-4-[(2S)-3,3,3-trifluoro-2-hydroxypropyl]-2,4-dihydro-3H-1,2,4-triazol-3-one], at human V1a receptor, the IC50 was 3.05 nM and the “ratio IC50 hV2/hV1a” value stood at 3.7. Moreover, the IC50 at human V2 receptor was 11.4 nM.
For `CC(F)(F)c1nc(Cn2nc(-c3ccc(Cl)cc3)n(C[C@H](O)C(F)(F)F)c2=O)nn1-c1ccccc1S(N)(=O)=O` [Example 66, 2-[3-({3-(4-Chlorophenyl)-5-oxo-4-[(2S)-3,3,3-trifluoro-2-hydroxypropyl]-4,5-dihydro-1H-1,2,4-triazol-1-yl}methyl)-5-(1,1-difluoroethyl)-1H-1,2,4-triazol-1-yl]benzenesulfonamide] the same measures were 58 nM, 5.9 and 340 nM.
As for `CCOc1ccccc1-n1nc(Cn2nc(-c3ccc(Cl)cc3)n(C[C@H](O)C(F)(F)F)c2=O)nc1C(C)(F)F` [Example 67, 5-(4-Chlorophenyl)-2-{[5-(1,1-difluoroethyl)-1-(2-ethoxyphenyl)-1H-1,2,4-triazol-3-yl]methyl}-4-[(2S)-3,3,3-trifluoro-2-hydroxypropyl]-2,4-dihydro-3H-1,2,4-triazol-3-one], the IC50 came out at 1.8 nM on human V1a receptor and 7.85 nM on human V2 receptor. Further, at human V1a receptor, the “ratio IC50 hV2/hV1a” value is 4.4.
For `CC(F)(F)c1nc(Cn2nc(-c3ccc(Cl)cc3)n(C[C@H](O)C(F)(F)F)c2=O)nn1-c1c(Cl)cccc1Cl` [Example 68, 5-(4-Chlorophenyl)-2-{[1-(2,6-dichlorophenyl)-5-(1,1-difluoroethyl)-1H-1,2,4-triazol-3-yl]methyl}-4-[(2S)-3,3,3-trifluoro-2-hydroxypropyl]-2,4-dihydro-3H-1,2,4-triazol-3-one], in that order: 3.3 nM, 4.23 nM and 1.3.
For `CC(F)(F)c1nc(Cn2nc(-c3ccc(Cl)cc3)n(C[C@H](O)C(F)(F)F)c2=O)nn1-c1c(F)cccc1Cl` [Example 69, 2-{[1-(2-Chloro-6-fluorophenyl)-5-(1,1-difluoroethyl)-1H-1,2,4-triazol-3-yl]methyl}-5-(4-chlorophenyl)-4-[(2S)-3,3,3-trifluoro-2-hydroxypropyl]-2,4-dihydro-3H-1,2,4-triazol-3-one], in that order: 2.95 nM, 6.9 nM and 2.3.
For `CC(F)(F)c1nc(Cn2nc(-c3ccc(Cl)cc3)n(C[C@H](O)C(F)(F)F)c2=O)nn1-c1c(F)cccc1F` [Example 70, 5-(4-Chlorophenyl)-2-{[5-(1,1-difluoroethyl)-1-(2,6-difluorophenyl)-1H-1,2,4-triazol-3-yl]methyl}-4-[(2S)-3,3,3-trifluoro-2-hydroxypropyl]-2,4-dihydro-3H-1,2,4-triazol-3-one], on human V1a receptor, the IC50 was determined as 1.75 nM and the “ratio IC50 hV2/hV1a” value worked out at 1.3. In addition, at human V2 receptor, the IC50 is 2.27 nM.
Turning to `Cc1cccc(C)c1-n1nc(Cn2nc(-c3ccc(Cl)cc3)n(C[C@H](O)C(F)(F)F)c2=O)nc1C(C)(F)F` [Example 71, 5-(4-Chlorophenyl)-2-{[5-(1,1-difluoroethyl)-1-(2,6-dimethylphenyl)-1H-1,2,4-triazol-3-yl]methyl}-4-[(2S)-3,3,3-trifluoro-2-hydroxypropyl]-2,4-dihydro-3H-1,2,4-triazol-3-one], at human V1a receptor, the IC50 was 5.3 nM and the “ratio IC50 hV2/hV1a” value came to 0.8. In addition, at human V2 receptor, the IC50 came out at 4.27 nM.
For `CC(C)c1ccccc1-n1nc(Cn2nc(-c3ccc(Cl)cc3)n(C[C@H](O)C(F)(F)F)c2=O)nc1C(C)(F)F` [Example 72, 5-(4-Chlorophenyl)-2-({5-(1,1-difluoroethyl)-1-[2-(propan-2-yl)phenyl]-1H-1,2,4-triazol-3-yl}methyl)-4-[(2S)-3,3,3-trifluoro-2-hydroxypropyl]-2,4-dihydro-3H-1,2,4-triazol-3-one] the same measures were 31 nM, 1.1 and 34.7 nM.
As for `CCc1cccc(C)c1-n1nc(Cn2nc(-c3ccc(Cl)cc3)n(C[C@H](O)C(F)(F)F)c2=O)nc1C(C)(F)F` [Example 73, 5-(4-Chlorophenyl)-2-{[5-(1,1-difluoroethyl)-1-(2-ethyl-6-methylphenyl)-1H-1,2,4-triazol-3-yl]methyl}-4-[(2S)-3,3,3-trifluoro-2-hydroxypropyl]-2,4-dihydro-3H-1,2,4-triazol-3-one], at human V1a receptor, the IC50 was 41 nM and the “ratio IC50 hV2/hV1a” value was found to be 0.3. The IC50 on human V2 receptor was determined as 11.9 nM.
